According to patent US10722501B2 (BAYER AKTIENGESELLSCHAFT, priority 2016, dated 2020):

What follows are molecules tested against T1, recombinant full-length human prolyl endopeptidase (PREP) (Homo sapiens, UniProt P48147) (assay: Biochemical human prolyl endopeptidase (PREP) assay with fluorescently labelled substrate). Settings: substrate Z-Gly-Pro-AMC 50 μM, 32° C., 60 min; some as mean values from multiple independent determinations.
T1 construct: To recombinant full-length human prolyl endopeptidase (PREP, R&D-Systems, 4308-SE); purchased R&D-Systems 4308-SE
T1 sequence (P48147 1-710): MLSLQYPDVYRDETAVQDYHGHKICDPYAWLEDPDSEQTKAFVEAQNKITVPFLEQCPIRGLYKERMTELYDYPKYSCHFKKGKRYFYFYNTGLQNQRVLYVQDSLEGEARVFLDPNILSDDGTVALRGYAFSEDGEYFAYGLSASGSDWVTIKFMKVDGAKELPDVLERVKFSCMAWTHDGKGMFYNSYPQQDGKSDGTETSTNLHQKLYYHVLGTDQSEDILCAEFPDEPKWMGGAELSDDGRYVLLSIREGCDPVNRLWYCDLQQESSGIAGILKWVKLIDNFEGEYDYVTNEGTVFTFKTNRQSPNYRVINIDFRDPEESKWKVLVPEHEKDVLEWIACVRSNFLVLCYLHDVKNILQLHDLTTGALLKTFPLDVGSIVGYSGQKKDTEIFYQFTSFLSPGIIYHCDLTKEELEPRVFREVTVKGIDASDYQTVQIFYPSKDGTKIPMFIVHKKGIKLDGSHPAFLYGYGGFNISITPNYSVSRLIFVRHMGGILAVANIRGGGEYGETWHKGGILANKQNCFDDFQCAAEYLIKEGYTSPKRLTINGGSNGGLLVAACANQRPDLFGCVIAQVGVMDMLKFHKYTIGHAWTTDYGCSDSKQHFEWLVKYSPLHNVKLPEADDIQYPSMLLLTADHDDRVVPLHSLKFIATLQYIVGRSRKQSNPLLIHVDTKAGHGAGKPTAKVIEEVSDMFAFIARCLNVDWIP
Procedure, shortened: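 Initial rates of fluorescence increase from 50 μM Z-Gly-Pro-AMC cleavage (ex 360/em 465 nm, 60 min, 32° C) give percent PREP activity versus no-compound control, and IC50 is interpolated. Enzyme used at 0.4 nM (final, example) in Tris pH 7.5 with EDTA, GSH, BSA and Brij-35; compounds span 1 nM to 30 μM.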

SMILES | IC50
CC(c1ccc(C(F)(F)F)nc1)n1nc2n(c1=O)[C@H](C(=O)N1C[C@@H](F)[C@@H](F)C1)CCC2 (single isomer, unassigned) [Example 219] | 7.3 nM
O=C(C1CCc2nn(Cc3ccnc(C(F)(F)F)c3F)c(=O)n21)N1C[C@@H](F)[C@@H](F)C1 (mixture of isomers) [Example 175, (5RS)-5-{[(3R,4S)-3,4-Difluoropyrrolidin-1-yl]carbonyl}-2-{[3-fluoro-2-(trifluoromethyl)pyridin-4-yl]methyl}-2,5,6,7-tetrahydro-3H-pyrrolo[2,1-c][1,2,4]triazol-3-one] | 7 nM
CC1Cc2nn(Cc3ccc(C(F)(F)F)nc3)c(=O)n2C(C(=O)N2CC(O)C2)C1 (racemic) [Example 134, (5RS,7RS)-5-[(3-Hydroxyazetidin-1-yl)carbonyl]-7-methyl-2-{[6-(trifluoromethyl)pyridin-3-yl]methyl}-5,6,7,8-tetrahydro[1,2,4]triazolo[4,3-a]pyridin-3(2H)-one] | 79 nM
Cc1ccc(Cn2nc3n(c2=O)[C@H](C(=O)N2CCC4CC42)CCC3)cc1 (single isomer, unassigned) [Example 189] | 34 nM
O=C(C1CCCc2nn(Cc3cc(F)c(F)cc3F)c(=O)n21)N1CCC(F)(F)C1 (racemic) [Example 91, (5RS)-5-[(3,3-Difluoropyrrolidin-1-yl)carbonyl]-2-(2,4,5-trifluorobenzyl)-5,6,7,8-tetrahydro[1,2,4]triazolo[4,3-a]pyridin-3(2H)-one] | 2.3 nM
O=C([C@@H]1CCCc2nn(Cc3cccc(Br)c3)c(=O)n21)N1CC[C@H](F)C1 [Example 213, (5S)-2-(3-Bromobenzyl)-5-{[(3S)-3-fluoropyrrolidin-1-yl]carbonyl}-5,6,7,8-tetrahydro[1,2,4]triazolo[4,3-a]pyridin-3(2H)-one] | 0.77 nM
O=C(C1CC(C(F)(F)F)Cc2nn(Cc3ccc(Cl)nc3)c(=O)n21)N1C[C@@H](F)[C@@H](F)C1 (single isomer, unassigned) [Example 248] | 12 nM
O=C(C1C(C(F)(F)F)CCc2nn(Cc3ncc(Cl)cc3Cl)c(=O)n21)N1CC[C@H](F)C1 (single isomer, unassigned) [Example 283] | 6.2 nM
O=C(C1CC(C(F)(F)F)Cc2nn(Cc3cncc(Cl)c3)c(=O)n21)N1C[C@@H](F)[C@@H](F)C1 (single isomer, unassigned) [Example 269] | 4.2 nM
O=C([C@@H]1CCCc2nn(CC3CCC(C(F)(F)F)CC3)c(=O)n21)N1CCCC1 (single isomer, unassigned) [Example 185] | 0.37 nM
O=C(C1C(C(F)(F)F)CCc2nn(Cc3ncc(Cl)cc3Cl)c(=O)n21)N1CC[C@H](F)C1 (mixture of isomers) [Example 282, (5RS,6RS)-2-[(3,5-Dichloropyridin-2-yl)methyl]-5-{[(3S)-3-fluoropyrrolidin-1-yl]carbonyl}-6-(trifluoromethyl)-5,6,7,8-tetrahydro[1,2,4]triazolo[4,3-a]pyridin-3(2H)-one] | 15 nM
O=C(C1CCCc2nn(Cc3ccc(OC(F)(F)F)c(Cl)c3)c(=O)n21)N1CCCC1 (racemic) [Example 73, (5RS)-2-[3-Chloro-4-(trifluoromethoxy)benzyl]-5-(pyrrolidin-1-ylcarbonyl)-5,6,7,8-tetrahydro[1,2,4]triazolo[4,3-a]pyridin-3(2H)-one] | 1.5 nM
CC(c1ccc(C(F)(F)F)nc1)n1nc2n(c1=O)[C@H](C(=O)N1C[C@@H](F)[C@@H](F)C1)CCC2 (single isomer, unassigned) [Example 218] | 3.3 nM
O=C(C1C(C(F)(F)F)CCc2nn(Cc3ccc(C(F)(F)F)nc3)c(=O)n21)N1CC(F)C1 (single isomer, unassigned) [Example 305, (5RS,6RS)-5-[(3-Fluoroazetidin-1-yl)carbonyl]-6-(trifluoromethyl)-2-{[6-(trifluoromethyl)pyridin-3-yl]methyl}-5,6,7,8-tetrahydro[1,2,4]triazolo[4,3-a]pyridin-3(2H)-one] | 14 nM

Other lines, results leading:

IC50 | SMILES
4.8 nM | COc1ccc(CCn2nc3n(c2=O)[C@H](C(=O)N2CC(F)C2)CCC3)cc1 [Example 347, (5S)-5-[(3-Fluoroazetidin-1-yl)carbonyl]-2-[2-(4-methoxyphenyl)ethyl]-5,6,7,8-tetrahydro[1,2,4]triazolo[4,3-a]pyridin-3(2H)-one]
2.9 nM | Cc1ccc(C2(Cn3nc4n(c3=O)[C@H](C(=O)N3CCC(F)(F)C3)CCC4)CC2)cc1 [Example 524, (5S)-5-[(3,3-Difluoropyrrolidin-1-yl)carbonyl]-2-{[1-(4-methylphenyl)cyclopropyl]methyl}-5,6,7,8-tetrahydro[1,2,4]triazolo[4,3-a]pyridin-3(2H)-one]
0.465 nM | O=C([C@@H]1CCCc2nn(Cc3ccc(F)cc3F)c(=O)n21)N1CC(F)C1 [Example 486, (5S)-2-(2,4-Difluorobenzyl)-5-[(3-fluoroazetidin-1-yl)carbonyl]-5,6,7,8-tetrahydro[1,2,4]triazolo[4,3-a]pyridin-3(2H)-one]
14 nM | O=C([C@@H]1CCC(F)(F)c2nn(Cc3ccc(Cl)cn3)c(=O)n21)N1CCC(F)(F)C1 [Example 586, (5S)-2-[(5-Chloropyridin-2-yl)methyl]-5-[(3,3-difluoropyrrolidin-1-yl)carbonyl]-8,8-difluoro-5,6,7,8-tetrahydro[1,2,4]triazolo[4,3-a]pyridin-3(2H)-one]
0.82 nM | COc1ccc(Cn2nc3n(c2=O)[C@H](C(=O)N2CCCC2)CCC3)cn1 [Example 538, (5S)-2-[(6-Methoxypyridin-3-yl)methyl]-5-(pyrrolidin-1-ylcarbonyl)-5,6,7,8-tetrahydro[1,2,4]triazolo[4,3-a]pyridin-3(2H)-one]
0.44 nM | O=C([C@@H]1CCCc2nn(Cc3nccc(C(F)(F)F)c3Cl)c(=O)n21)N1CCCC1 [Example 533, (5S)-2-{[3-Chloro-4-(trifluoromethyl)pyridin-2-yl]methyl}-5-(pyrrolidin-1-ylcarbonyl)-5,6,7,8-tetrahydro[1,2,4]triazolo[4,3-a]pyridin-3(2H)-one]
4.2 nM | COc1ccc(CCn2nc3n(c2=O)[C@H](C(=O)N2CCC(F)(F)C2)CCC3)cc1 [Example 346, (5S)-5-[(3,3-Difluoropyrrolidin-1-yl)carbonyl]-2-[2-(4-methoxyphenyl)ethyl]-5,6,7,8-tetrahydro[1,2,4]triazolo[4,3-a]pyridin-3(2H)-one]
0.575 nM | O=C([C@@H]1CCCc2nn(Cc3nccc(C(F)(F)F)c3Cl)c(=O)n21)N1C[C@@H](F)[C@@H](F)C1 [Example 388, (5S)-2-{[3-Chloro-4-(trifluoromethyl)pyridin-2-yl]methyl}-5-{[(3R,4S)-3,4-difluoropyrrolidin-1-yl]carbonyl}-5,6,7,8-tetrahydro[1,2,4]triazolo[4,3-a]pyridin-3(2H)-one]
1.2 nM | O=C([C@@H]1CCCc2nn(Cc3cccc(C(F)(F)F)n3)c(=O)n21)N1C[C@@H](F)[C@@H](F)C1 [Example 371, (5S)-5-{[(3R,4S)-3,4-Difluoropyrrolidin-1-yl]carbonyl}-2-{[6-(trifluoromethyl)pyridin-2-yl]methyl}-5,6,7,8-tetrahydro[1,2,4]triazolo[4,3-a]pyridin-3(2H)-one]
0.67 nM | O=C([C@@H]1CCCc2nn(Cc3cnc(C(F)(F)F)c(Cl)c3)c(=O)n21)N1CCCC1 [Example 545, (5S)-2-{[5-Chloro-6-(trifluoromethyl)pyridin-3-yl]methyl}-5-(pyrrolidin-1-ylcarbonyl)-5,6,7,8-tetrahydro[1,2,4]triazolo[4,3-a]pyridin-3(2H)-one]
0.3 nM | O=C([C@@H]1CCCc2nn(Cc3ncc(F)cc3F)c(=O)n21)N1CC[C@H](F)C1 [Example 581, (5S)-2-[(3,5-Difluoropyridin-2-yl)methyl]-5-{[(3S)-3-fluoropyrrolidin-1-yl]carbonyl}-5,6,7,8-tetrahydro[1,2,4]triazolo[4,3-a]pyridin-3(2H)-one]
3.1 nM | COc1ccc(Cn2nc3n(c2=O)[C@H](C(=O)N2CC(F)C2)CCC3)cn1 [Example 433, (5S)-5-[(3-Fluoroazetidin-1-yl)carbonyl]-2-[(6-methoxypyridin-3-yl)methyl]-5,6,7,8-tetrahydro[1,2,4]triazolo[4,3-a]pyridin-3(2H)-one]
2.1 nM | COc1ccc(Cn2nc3n(c2=O)[C@H](C(=O)N2C[C@@H](F)[C@@H](F)C2)CCC3)nc1 [Example 380, (5S)-5-{[(3R,4S)-3,4-Difluoropyrrolidin-1-yl]carbonyl}-2-[(5-methoxypyridin-2-yl)methyl]-5,6,7,8-tetrahydro[1,2,4]triazolo[4,3-a]pyridin-3(2H)-one]
